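The compound was tested at five concentrations on cells cultured in 96-well plates, with a 48-hour exposure period. Abbreviation: GI50, concentration required for 50% inhibition of growth.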 The source made the active and inactive calls. Rule as the data show it: active = GI50 up to about 1.1 µM and inactive = higher.
What was measured:
Test in all cases: NCI-60 cell line screen, 48 h
[1] = system: HOP-62
[2] = system: UACC-257
[3] = system: TK-10
[4] = system: OVCAR-5
[5] = system: SF-539
[6] = system: SK-MEL-2
[7] = system: RXF 393
[8] = system: SK-MEL-5
[9] = system: U-251
[10] = system: OVCAR-3
[11] = system: A549
[12] = system: SR
[13] = system: RPMI-8226
[14] = system: SF-295
[15] = system: LOX IMVI
[16] = system: NCI-H460
[17] = system: MDA-MB-435
[18] = system: MDA-MB-231
[19] = system: DU-145

Row | SMILES | GI50 [1] | GI50 [2] | GI50 [3] | GI50 [4] | GI50 [5] | GI50 [6] | GI50 [7] | GI50 [8] | GI50 [9] | GI50 [10] | GI50 [11] | GI50 [12] | GI50 [13] | GI50 [14] | GI50 [15] | GI50 [16] | GI50 [17] | GI50 [18] | GI50 [19]
1 | COc1cccc2c1C(=O)c1c(O)c3c(c(O)c1C2=O)C[C@@](O)(C(C)=O)C[C@@H]3OC1CC([N+]([O-])(Cc2ccccc2)Cc2ccccc2)C(O)C(C)O1 (stereo partly specified) | 1.56 µM (inactive) | 1.71 µM (inactive) | 1.6 µM (inactive) | 1.79 µM (inactive) | 1.26 µM (inactive) | 1.98 µM (inactive) | 1.21 µM (inactive) | 1.35 µM (inactive) | 1.24 µM (inactive) | 1.73 µM (inactive) | 1.29 µM (inactive) | 0.179 µM (active) | 1.54 µM (inactive) | 1.19 µM (inactive) | 1.02 µM (active) | 0.71 µM (active) |  |  | 
2 | NC(CCCNc1cccc(O)c1)C(=O)O (stereo unspecified) | > 100 µM (inactive) | > 100 µM (inactive) | > 100 µM (inactive) | > 100 µM (inactive) |  | > 100 µM (inactive) | > 100 µM (inactive) | > 100 µM (inactive) | > 100 µM (inactive) | > 100 µM (inactive) | > 100 µM (inactive) | > 100 µM (inactive) | > 100 µM (inactive) | > 100 µM (inactive) | > 100 µM (inactive) | > 100 µM (inactive) |  |  | 
3 | CC1CCN(CCC(=O)CC(c2ccccc2)c2c(O)c3ccccc3oc2=O)CC1 (stereo unspecified) | > 100 µM (inactive) | > 100 µM (inactive) | > 100 µM (inactive) |  | > 100 µM (inactive) | > 100 µM (inactive) | > 100 µM (inactive) | > 100 µM (inactive) | > 100 µM (inactive) | > 100 µM (inactive) | > 100 µM (inactive) | > 100 µM (inactive) | > 100 µM (inactive) | > 100 µM (inactive) | > 100 µM (inactive) | > 100 µM (inactive) |  |  | 
4 | CCN(CC)CCC1CC/C(=C\c2ccc(OC)cc2)C1=O (stereo unspecified) | > 100 µM (inactive) | 32 µM (inactive) | > 100 µM (inactive) | > 100 µM (inactive) | > 100 µM (inactive) | > 100 µM (inactive) | 42.3 µM (inactive) | 23.6 µM (inactive) | > 100 µM (inactive) | > 100 µM (inactive) | > 100 µM (inactive) | 55.8 µM (inactive) | 40.9 µM (inactive) | > 100 µM (inactive) | > 100 µM (inactive) |  |  |  | 
5 | NNC(=O)c1ccc(-n2nnc(C(=O)NN)c2C(=O)NN)cc1 | > 100 µM (inactive) | > 100 µM (inactive) | > 100 µM (inactive) | > 100 µM (inactive) |  | > 100 µM (inactive) |  | > 100 µM (inactive) | > 100 µM (inactive) | > 100 µM (inactive) | > 100 µM (inactive) | > 100 µM (inactive) | > 100 µM (inactive) | > 100 µM (inactive) | > 100 µM (inactive) | > 100 µM (inactive) | > 100 µM (inactive) | > 100 µM (inactive) | > 100 µM (inactive)
6 | CCOC(=O)C(=Cc1ccccc1Br)C(=O)OCC | 2.37 µM (inactive) | 3.58 µM (inactive) | 3.47 µM (inactive) | 6.5 µM (inactive) | 2.34 µM (inactive) | 2.14 µM (inactive) | 2.1 µM (inactive) | 1.85 µM (inactive) | 1.66 µM (inactive) | 2.07 µM (inactive) | 4 µM (inactive) | 0.208 µM (active) | 2.23 µM (inactive) | 3.26 µM (inactive) | 0.695 µM (active) | 3.26 µM (inactive) | 1.69 µM (inactive) | 6.41 µM (inactive) | 0.508 µM (active)
7 | CN(C)c1ccc(/C=N/N=C2\C(=O)Nc3c(Cl)cc(Cl)cc32)cc1 | 39.7 µM (inactive) | > 100 µM (inactive) | 94.8 µM (inactive) | > 100 µM (inactive) | 39.5 µM (inactive) | 32.1 µM (inactive) | 59.3 µM (inactive) | 41.2 µM (inactive) | 79.3 µM (inactive) | 36.6 µM (inactive) | 41.9 µM (inactive) | 6.46 µM (inactive) |  | 32.9 µM (inactive) | 25.6 µM (inactive) | 41 µM (inactive) | 22.5 µM (inactive) | 32.5 µM (inactive) | 
8 | O=C(NC(=S)NC(=O)c1cc(O)c(O)c(O)c1)c1cc(O)c(O)c(O)c1 |  | 22.3 µM (inactive) | 28.4 µM (inactive) | 27 µM (inactive) | 30.8 µM (inactive) | 20.1 µM (inactive) | 18 µM (inactive) | 24.5 µM (inactive) | 27 µM (inactive) |  | 37.1 µM (inactive) | > 100 µM (inactive) | 48.3 µM (inactive) | 17.1 µM (inactive) | 12.8 µM (inactive) | 26.5 µM (inactive) | 7.93 µM (inactive) | 28.8 µM (inactive) | 25.5 µM (inactive)
